According to US20220395472A1 (Dermavant Sciences GmbH, priority 2021, published 2022):

Test system: adults with plaque psoriasis
Experiment: Long-term extension study (PSOARING 3): % BSA affected
Assay type: in vivo, human
Description: The % BSA affected is an estimate of the percentage of total involved skin with psoriasis. For the purpose of clinical estimation, the total palmar surface of the subject's palm and digits was assumed to be approximately equivalent to 1% BSA. The % BSA affected by psoriasis was evaluated (from 0% to 100%). Details on calculation of approximate % BSA involvement in each subject (total and individual) can be found in Appendix 2 of the protocol. Percent BSA is a static assessment made without reference to previous scores.
At Screening, Baseline, and for all efficacy assessments, lesions on the subject's scalp, palms, fingernails, toenails, and soles were not included in the calculation of % BSA affected as these areas were excluded from the efficacy analyses.

[1] = Week 16 LOCF, Tapinarof (Pivotal)
[2] = Week 16 LOCF, Vehicle (Pivotal)
[3] = Week 16 OC, Tapinarof (Pivotal)
[4] = Week 40 LOCF, Tapinarof (Pivotal)
[5] = Week 40 LOCF, Vehicle (Pivotal)
[6] = Week 40 OC, Tapinarof (Pivotal)

CC(C)c1c(O)cc(/C=C/c2ccccc2)cc1O [Tapinarof Cream 1%]
% BSA affected, Observed, Mean (Baseline, Overall): 4.65 % BSA
% BSA affected, Observed, Median (Baseline, Overall): 3.00 % BSA
% BSA affected, Observed, Mean (Baseline, Tapinarof (Pivotal)): 3.31 % BSA
% BSA affected, Observed, Median (Baseline, Tapinarof (Pivotal)): 2.00 % BSA
% BSA affected, CFBL, Mean (Week 16 LOCF, Overall): −1.85 % BSA
% BSA affected, CFBL, Median (Week 16 LOCF, Overall): −0.96 % BSA
% BSA affected, Observed, Mean (Week 16 LOCF, Overall): 2.82 % BSA
% BSA affected, Observed, Median (Week 16 LOCF, Overall): 1.20 % BSA
% BSA affected, Percent CFBL, Mean (Week 16 LOCF, Overall): −20.99%
% BSA affected, Percent CFBL, Median (Week 16 LOCF, Overall): −46.13%
% BSA affected, CFBL, Mean [1]: −0.77 % BSA
% BSA affected, CFBL, Median [1]: −0.20 % BSA
% BSA affected, Observed, Mean [1]: 2.54 % BSA
% BSA affected, Observed, Median [1]: 1.00 % BSA
% BSA affected, Percent CFBL, Mean [1]: −5.67%
% BSA affected, Percent CFBL, Median [1]: −33.33%
% BSA affected, CFBL, Mean [2]: −3.96 % BSA
% BSA affected, CFBL, Median [2]: −2.98 % BSA
% BSA affected, Observed, Mean [2]: 3.36 % BSA
% BSA affected, Observed, Median [2]: 1.80 % BSA
% BSA affected, Percent CFBL, Mean [2]: −47.15%
% BSA affected, Percent CFBL, Median [2]: −63.42%
% BSA affected, CFBL, Mean (Week 16 OC, Overall): −2.11 % BSA
% BSA affected, CFBL, Median (Week 16 OC, Overall): −1.00 % BSA
% BSA affected, Observed, Mean (Week 16 OC, Overall): 2.28 % BSA
% BSA affected, Observed, Median (Week 16 OC, Overall): 1.02 % BSA
% BSA affected, Percent CFBL, Mean (Week 16 OC, Overall): −31.25%
% BSA affected, Percent CFBL, Median (Week 16 OC, Overall): −50.00%
% BSA affected, CFBL, Mean [3]: −0.97 % BSA
% BSA affected, CFBL, Median [3]: −0.23 % BSA
% BSA affected, Observed, Mean [3]: 1.97 % BSA
% BSA affected, Observed, Median [3]: 1.00 % BSA
% BSA affected, Percent CFBL, Mean [3]: −18.46%
% BSA affected, Percent CFBL, Median [3]: −36.96%
% BSA affected, CFBL, Mean (Week 16 OC, Vehicle (Pivotal)): −4.40 % BSA
% BSA affected, CFBL, Median (Week 16 OC, Vehicle (Pivotal)): −3.18 % BSA
% BSA affected, Observed, Mean (Week 16 OC, Vehicle (Pivotal)): 2.89 % BSA
% BSA affected, Observed, Median (Week 16 OC, Vehicle (Pivotal)): 1.50 % BSA
% BSA affected, Percent CFBL, Mean (Week 16 OC, Vehicle (Pivotal)): −53.18%
% BSA affected, Percent CFBL, Median (Week 16 OC, Vehicle (Pivotal)): −66.67%
% BSA affected, CFBL, Mean (Week 40 LOCF, Overall): −2.04 % BSA
% BSA affected, CFBL, Median (Week 40 LOCF, Overall): −1.00 % BSA
% BSA affected, Observed, Mean (Week 40 LOCF, Overall): 2.63 % BSA
% BSA affected, Observed, Median (Week 40 LOCF, Overall): 1.00 % BSA
% BSA affected, Percent CFBL, Mean (Week 40 LOCF, Overall): −16.29%
% BSA affected, Percent CFBL, Median (Week 40 LOCF, Overall): −55.78%
% BSA affected, CFBL, Mean [4]: −0.88 % BSA
% BSA affected, CFBL, Median [4]: −0.30 % BSA
% BSA affected, Observed, Mean [4]: 2.44 % BSA
% BSA affected, Observed, Median [4]: 1.00 % BSA
% BSA affected, Percent CFBL, Mean [4]: −0.11%
% BSA affected, Percent CFBL, Median [4]: −46.61%
% BSA affected, CFBL, Mean [5]: −4.33 % BSA
% BSA affected, CFBL, Median [5]: −3.30 % BSA
% BSA affected, Observed, Mean [5]: 2.99 % BSA
% BSA affected, Observed, Median [5]: 1.00 % BSA
% BSA affected, Percent CFBL, Mean [5]: −43.91%
% BSA affected, Percent CFBL, Median [5]: −75.06%
% BSA affected, CFBL, Mean (Week 40 OC, Overall): −2.35 % BSA
% BSA affected, CFBL, Median (Week 40 OC, Overall): −1.50 % BSA
% BSA affected, Observed, Mean (Week 40 OC, Overall): 1.85 % BSA
% BSA affected, Observed, Median (Week 40 OC, Overall): 0.72 % BSA
% BSA affected, Percent CFBL, Mean (Week 40 OC, Overall): −35.43%
% BSA affected, Percent CFBL, Median (Week 40 OC, Overall): −67.00%
% BSA affected, CFBL, Mean [6]: −0.93 % BSA
% BSA affected, CFBL, Median [6]: −0.49 % BSA
% BSA affected, Observed, Mean [6]: 1.75 % BSA
% BSA affected, Observed, Median [6]: 0.68 % BSA
% BSA affected, Percent CFBL, Mean [6]: −21.60%
% BSA affected, Percent CFBL, Median [6]: −57.39%
% BSA affected, CFBL, Mean (Week 40 OC, Vehicle (Pivotal)): −5.30 % BSA
% BSA affected, CFBL, Median (Week 40 OC, Vehicle (Pivotal)): −4.49 % BSA
% BSA affected, Observed, Mean (Week 40 OC, Vehicle (Pivotal)): 2.07 % BSA
% BSA affected, Observed, Median (Week 40 OC, Vehicle (Pivotal)): 0.80 % BSA
% BSA affected, Percent CFBL, Mean (Week 40 OC, Vehicle (Pivotal)): −60.22%
